Reference: paper PMC9228270, “Design, Synthesis, In Silico Studies and Inhibitory Activity towards Bcr-Abl, BTK and FLT3-ITD of New 2,6,9-Trisubstituted Purine Derivatives as Potential Agents for the Treatment of Leukaemia” (Pharmaceutics, 2022)
“And” between values parts separate entries of the source, which are not always exact repeats. Equal entries are not always repeated.

Legend:
FLT3-ITD = target: T1, FLT3-ITD (Homo sapiens, UniProt P36888, ITD); test: Recombinant kinase radioassay, FLT3-ITD; format: biochemical; settings: recombinant kinase, radioassay; at least three independent experiments, range 0.01–100 µM; read-out: IC50 FLT3-ITD
T1 sequence (P36888 27-993): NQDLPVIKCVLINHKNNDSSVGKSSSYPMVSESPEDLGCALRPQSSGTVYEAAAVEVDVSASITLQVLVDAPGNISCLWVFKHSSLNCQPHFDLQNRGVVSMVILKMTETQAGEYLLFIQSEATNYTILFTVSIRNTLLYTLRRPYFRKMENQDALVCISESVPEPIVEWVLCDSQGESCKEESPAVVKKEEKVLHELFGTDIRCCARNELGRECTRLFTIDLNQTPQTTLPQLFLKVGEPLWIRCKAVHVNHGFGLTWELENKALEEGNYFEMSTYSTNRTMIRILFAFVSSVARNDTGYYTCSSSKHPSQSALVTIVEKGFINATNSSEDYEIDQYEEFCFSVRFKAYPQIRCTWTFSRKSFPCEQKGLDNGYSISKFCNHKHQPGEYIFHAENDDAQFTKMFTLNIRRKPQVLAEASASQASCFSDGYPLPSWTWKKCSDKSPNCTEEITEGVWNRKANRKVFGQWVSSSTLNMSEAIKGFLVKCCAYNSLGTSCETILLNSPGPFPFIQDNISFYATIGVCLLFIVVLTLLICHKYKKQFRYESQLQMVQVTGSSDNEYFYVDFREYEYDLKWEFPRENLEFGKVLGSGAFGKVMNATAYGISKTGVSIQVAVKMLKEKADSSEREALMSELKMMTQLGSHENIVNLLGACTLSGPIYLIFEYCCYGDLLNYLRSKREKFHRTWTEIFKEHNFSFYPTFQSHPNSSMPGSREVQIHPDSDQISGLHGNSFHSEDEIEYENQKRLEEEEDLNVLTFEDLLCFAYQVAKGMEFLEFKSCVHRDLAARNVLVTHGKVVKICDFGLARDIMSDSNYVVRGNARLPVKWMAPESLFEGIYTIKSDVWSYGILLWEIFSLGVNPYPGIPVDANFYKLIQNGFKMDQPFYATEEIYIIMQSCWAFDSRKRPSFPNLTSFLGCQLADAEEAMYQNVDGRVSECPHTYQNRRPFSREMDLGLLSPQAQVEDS
Protocol: (§1) Recombinant kinase inhibition was measured using standard radioassay. Bcr-Abl1 and Cdk-2/cyclin E kinases were produced in-house, FLT3-ITD and BTK were purchased from ProQinase. The kinases were assayed with suitable substrates (500 µM peptide […] for Abl, 1 mg/mL histone H1 for Cdk-2, 100 µM poly (Glu:Tyr; 4:1)) in the presence of ATP (1 µM for Bcr-Abl, 15 µM for Cdk-2 and BTK), 0.05 µCi [γ-^33P]ATP and the test compound in reaction buffer (60 mM HEPES-NaOH, pH 7.5, 3 mM MgCl2, 3 mM MnCl2, 3 µM Na orthovanadate, 1.2 mM DTT, 2.5 µg/50 µL PEG20.000). The reactions were stopped by adding 3% aq. H3PO4. P-81 phosphocellulose (Whatman) was used to separate phosphorylated substrates. Kinase activity was quantified using a FLA-7000 digital image analyser.

[1] = tested on: Bcr-Abl signalling in K562 cells; test: Immunoblotting of Bcr-Abl downstream signalling in K562; format: cell-based; settings: 4 h
Protocol: (§2) Protein changes in the treated cells were analysed using immunoblotting. Briefly, cell lysates were separated on SDS-polyacrylamide gels and electroblotted onto nitrocellulose membranes. After blocking, overnight incubation with specific primary antibodies and incubation with peroxidase-conjugated secondary antibodies, the peroxidase activity was detected with Super-Signal West Pico reagents (Thermo Scientific, Waltham, MA, USA) using a CCD camera LAS-4000 (Fujifilm). The following specific antibodies were purchased from Cell Signalling: anti-FLT3 (clone 8F2), anti-phospho-FLT3 Y589/591 (clone 30D4), anti-STAT5 (clone D2O6Y), anti-phospho-STAT5 Y694, anti-ERK1/2, anti-phospho-ERK1/2 T202/Y204, anti-Akt (clone C67E7), anti-phospho-Akt S473 (clone D9E), anti-phospho-Bcr Y177, anti-CrkL (clone 32H4), anti-phospho-CrkL Y207, anti-BTK (clone C82B8), anti-phospho-BTK Y223, anti-PLCγ2, anti-phospho-PLCγ2 Y1217, and anti-PARP-1 (clone 46D11). Anti-α-tubulin (clone DM1A) was purchased from Sigma Aldrich.
(§3) Based on their inhibitory effects on recombinant kinases as well as cytotoxic effects in relevant cell line models, the purine derivatives 4i, 5b and 5j were selected for further experiments to confirm the expected molecular mechanism of action. The candidate compounds were tested to determine changes in signalling pathways downstream of the oncogenic kinases in cells. […]

HL-60 = test: Cytotoxicity assay (resazurin), HL-60; format: cell-based; settings: Homo sapiens, 72 h, three independent experiments, range 0.1 to 25 µM
Protocol: (§4) Cytotoxicity assays for the purines were quantified using the resazurin method, a dye to measure redox reactions occurring in the mitochondria of live cells. The cells were treated by tested compounds (in triplicate, six different doses) for 72 h.

Ramos = test: Cytotoxicity assay (resazurin), Ramos; format: cell-based; settings: Homo sapiens, 72 h, three independent experiments, range 0.1 to 25 µM
Protocol: as §4

K562 cells = test: Flow cytometry cell cycle, K562; format: cell-based; settings: 24 h, sub-micromolar concentrations
Protocol: Cell cycle effects were measured using flow cytometric determination of DNA content. MV4-11 and K562 cells were treated with tested compounds for 24 h. After the staining with propidium iodide, the DNA content was analysed by flow cytometry using a 488 nm laser (BD FACS Verse with software BD FACSuite^TM, version 1.0.6.). The cell cycle distribution was analysed using ModFit LT (Verity Software House 5.0, Topsham, ME, USA).

Bcr-Abl1 = Bcr-Abl1 (Homo sapiens, UniProt P00519); test: Recombinant kinase radioassay, Abl; format: biochemical; settings: ATP 1 µM, at least three independent experiments, range 0.01–100 µM
Protocol: as §1

MV4-11 = test: Cytotoxicity assay (resazurin), MV4-11; format: cell-based; settings: Homo sapiens, 72 h, three independent experiments, range 0.1 to 25 µM
Protocol: as §4

BTK = target: T2, BTK (Homo sapiens, UniProt Q06187); test: Recombinant kinase radioassay, BTK; format: biochemical; settings: recombinant kinase, radioassay, ATP 15 µM; at least three independent experiments, range 0.01–100 µM; read-out: IC50 BTK
T2 construct: purchased ProQinase
Protocol: as §1

CEM = test: Cytotoxicity assay (resazurin), CEM; format: cell-based; settings: Homo sapiens, CCRF-CEM, 72 h, three independent experiments, range 0.1 to 25 µM
Protocol: as §4

PARP-1 cleavage in K562 = test: Immunoblotting of PARP-1 cleavage, K562; format: cell-based; settings: K562 cells, 4 h
Protocol: as §2, with “Anti-α-tubulin (clone DM1A) was purchased from Sigma Aldrich.” left out
Finally, we analysed the mechanism of cell death induced by the prepared compounds 4i and 5b. Proteolytic cleavage of PARP-1—a well-established protein involved in apoptosis—was analysed in K562 and MV4-11 treated with respective compounds for 4 h. […] The PARP-1 fragment was not detected in MV4-11 cells treated with 5b because the compound was not effective in inducing apoptosis after 4 h of treatment (Figure 14B).

[2] = tested on: caspase 3/7 activity in K562 cells; test: Caspase-3/7 assay, K562; format: cell-based; settings: 24 h, at 1 µM
Protocol: MV4-11 and K562 cells were kept in a 96-well plate were treated with increasing concentrations of compound 4i and 5b for 24 h. After this period, caspase-3/7 assay buffer (150 mM HEPES pH 7.4, 450 mM NaCl, 150 mM KCl, 30 mM MgCl2, 1.2 mM EGTA, 1.5% Nonidet P40, 0.3% CHAPS, 30% sucrose, 30 mM DTT, and 3 mM PMSF) containing 150 µM peptide substrate Ac-DEVD-AMC (Enzo Life Sciences, Farmingdale, NY, USA) was added, and after 2 h incubation, the fluorescence of AMC was measured using a Fluoroskan Ascent microplate reader (Labsystems) at 346 nm/442 nm (excitation/emission).

Cdk-2/cyclin E = target: T3, Cdk-2/cyclin E (Homo sapiens, UniProt P24941); test: Recombinant kinase radioassay, Cdk-2/cyclin E; format: biochemical; settings: ATP 15 µM, at least three independent experiments, range 0.01–100 µM
T3 construct: made in house
Protocol: as §1

K562 = test: Cytotoxicity assay (resazurin), K562; format: cell-based; settings: Homo sapiens, 72 h, three independent experiments, range 0.1 to 25 µM
Protocol: as §4

[3] = tested on: BTK signalling in Ramos cells; test: Immunoblotting of BTK signalling in anti-IgM-stimulated Ramos; format: cell-based; settings: immunoglobulin M-activated Ramos cells, 4 h, dose-dependent
Protocol: as §2, §3

T2 sequence (Q06187 whole entry): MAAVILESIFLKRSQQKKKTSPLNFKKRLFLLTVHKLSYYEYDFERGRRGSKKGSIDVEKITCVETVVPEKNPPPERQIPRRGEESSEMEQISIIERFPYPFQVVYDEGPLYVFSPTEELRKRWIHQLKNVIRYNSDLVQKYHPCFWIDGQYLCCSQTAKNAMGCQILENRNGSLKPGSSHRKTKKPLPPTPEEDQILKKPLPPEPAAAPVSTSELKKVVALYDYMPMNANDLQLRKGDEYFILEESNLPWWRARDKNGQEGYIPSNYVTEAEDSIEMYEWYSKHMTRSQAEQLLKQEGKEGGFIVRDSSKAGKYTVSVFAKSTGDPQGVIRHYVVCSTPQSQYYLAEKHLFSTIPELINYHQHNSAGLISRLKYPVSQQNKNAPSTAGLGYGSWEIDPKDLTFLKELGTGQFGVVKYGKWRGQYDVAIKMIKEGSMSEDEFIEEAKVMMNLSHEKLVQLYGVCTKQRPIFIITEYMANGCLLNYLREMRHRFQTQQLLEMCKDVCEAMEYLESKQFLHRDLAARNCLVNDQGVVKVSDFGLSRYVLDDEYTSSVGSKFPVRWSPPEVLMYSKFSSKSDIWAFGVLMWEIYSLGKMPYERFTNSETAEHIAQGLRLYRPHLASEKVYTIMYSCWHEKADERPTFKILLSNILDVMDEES
Bcr-Abl1, sequence (P00519 27-1130): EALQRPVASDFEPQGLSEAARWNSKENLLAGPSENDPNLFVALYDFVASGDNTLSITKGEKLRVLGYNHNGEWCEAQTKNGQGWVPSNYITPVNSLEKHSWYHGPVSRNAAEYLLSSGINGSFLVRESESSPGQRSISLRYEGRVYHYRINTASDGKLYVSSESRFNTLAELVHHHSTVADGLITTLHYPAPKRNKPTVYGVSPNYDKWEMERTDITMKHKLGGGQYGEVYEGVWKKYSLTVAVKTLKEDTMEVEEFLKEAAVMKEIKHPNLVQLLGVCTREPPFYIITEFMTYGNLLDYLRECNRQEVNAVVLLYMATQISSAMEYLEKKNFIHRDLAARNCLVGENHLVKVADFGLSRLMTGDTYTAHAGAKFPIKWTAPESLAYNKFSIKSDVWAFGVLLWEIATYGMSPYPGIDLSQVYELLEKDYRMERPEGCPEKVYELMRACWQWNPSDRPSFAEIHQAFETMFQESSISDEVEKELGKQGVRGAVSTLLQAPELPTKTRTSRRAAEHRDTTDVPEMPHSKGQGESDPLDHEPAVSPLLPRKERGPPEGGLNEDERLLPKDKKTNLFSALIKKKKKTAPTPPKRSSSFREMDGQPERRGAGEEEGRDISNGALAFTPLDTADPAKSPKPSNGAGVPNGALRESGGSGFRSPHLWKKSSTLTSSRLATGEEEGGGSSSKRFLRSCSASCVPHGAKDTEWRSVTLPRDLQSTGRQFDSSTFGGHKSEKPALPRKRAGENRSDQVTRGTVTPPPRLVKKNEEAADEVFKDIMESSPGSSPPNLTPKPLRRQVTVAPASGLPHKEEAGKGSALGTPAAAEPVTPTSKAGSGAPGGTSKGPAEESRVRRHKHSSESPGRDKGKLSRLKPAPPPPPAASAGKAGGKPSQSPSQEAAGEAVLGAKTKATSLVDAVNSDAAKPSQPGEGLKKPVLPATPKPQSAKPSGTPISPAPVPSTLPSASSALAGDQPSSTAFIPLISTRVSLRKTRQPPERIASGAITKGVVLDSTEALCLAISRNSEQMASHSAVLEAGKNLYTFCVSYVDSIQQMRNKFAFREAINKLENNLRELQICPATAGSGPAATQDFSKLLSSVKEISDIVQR

Row | IC50 (FLT3-ITD) | IC50 (Bcr-Abl1) | IC50 (BTK) | IC50 (Cdk-2/cyclin E) | melting point | SMILES | Concentration from which autophosphorylation of Bcr (pBcr) is inhibited [1] | Level of phosphorylated STAT5 (pSTAT5) and CrkL (pCrkL) [1] | GI50 (HL-60) | GI50 (Ramos) | Cell cycle effect (K562 cells) | GI50 (MV4-11) | GI50 (CEM) | 89 kDa fragment of PARP-1 (PARP-1 cleavage in K562) | Relative caspase 3/7 activity [2] | GI50 (K562) | Levels of phosphorylated BTK and downstream targets PLCγ2 and Akt [3]
1 | 0.37 µM | 0.1 ± 0.03 µM | 0.91 ± 0.19 µM | 10.8 ± 1.6 µM | – | CN1CCN(c2ccc(Nc3nc(Nc4ccc(C#N)cc4)c4ncn(CC5CC5)c4n3)cc2)CC1 [Compound 4i, 4-((9-(Cyclopropylmethyl)-2-((4-(4-methylpiperazin-1-yl)phenyl)amino)-9H-purin-6-yl)amino)benzonitrile] | ≥ 0.08 µM | dose-dependently decreased | 3.17 ± 0.57 µM | 1.49 ± 0.05 µM | effectively induced G1 arrest | 0.89 ± 0.07 µM | 1.85 ± 0.1 µM | increased levels | nearly five-fold increase | 1.03 ± 0.21 µM | –
2 | 20.3 µM | > 100 µM | < 0.58 µM and 0.41 µM | 19 ± 1.55 µM | 171.3 to 173.5 °C | CCCCCCCCn1cnc2c(Nc3ccccc3)nc(Nc3ccc(N4CCN(C)CC4)cc3)nc21 [Compound 5j, N^2-(4-(4-Methylpiperazin-1-yl)phenyl)-9-octyl-N^6-phenyl-9H-purine-2,6-diamine] | – | – | 1.25 ± 0.11 µM | 14.2 ± 2.61 µM | – | 4.45 ± 1.48 µM | 23.6 ± 2.01 µM | – | – | 8.19 ± 0.06 µM | decreased
3 | 1.95 µM | 1.21 ± 0.11 µM | 6.01 ± 0.72 µM | 31.4 ± 3.18 µM | 164 to 165 °C | CN1CCN(C(=O)c2ccc(Nc3nc(Nc4ccccc4)c4ncn(CC5CC5)c4n3)cc2)CC1 [Compound 8a, (4-((9-(Cyclopropylmethyl)-6-(phenylamino)-9H-purin-2-yl)amino)phenyl)(4-methylpiperazin-1-yl)methanone] | – | – | 6.64 ± 1.42 µM | 16.6 ± 0.67 µM | – | 1.24 ± 0.21 µM | > 25 µM | – | – | 8.91 ± 1.64 µM | –
